Experimental data as given in patent US20140005163A1 (NOVARTIS AG, priority 2010, published 2014).

What was measured:
PI3K delta = target: T1, PI3K delta (Homo sapiens, UniProt O00329); assay: PI3K delta kinase assay (Kinase-Glo luminescence); type: biochemical
T1 construct: for the full-length p110-d subunit are generated and fused by overlapping PCR; p85(iSH2) fusion partner (see partner chain) (N); His tag (C); made in house; host or cells: baculovirus; Tn5 (Trichoplusia ni) or TiniPro insect cells
How it was run: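 Inhibition is derived from luminescent detection of unconsumed ATP. The reaction runs for one hour at ambient temperature and contains the δ isoform fusion protein, phosphatidylinositol substrate and low (1 μM) ATP. Eight compound concentrations are tested in single, and a 4-parameter logistic model is used to calculate IC50.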

[1] = test system: PKB Ser473 phosphorylation in Rat1-myr-HA-p110 beta cells; assay: Reverse protein array assay, PKB Ser473 phosphorylation in Rat1-myr-p110 beta cells; type: cell-based; settings: 0.5 h, pAkt Ser473, 30 minutes incubation, read-out: p-PKB IC50
How it was run: (§1)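 Lysates were arrayed at four dilutions, and phospho-PKB Ser473 was quantified by relative fluorescence signal. They came from Rat1-myr-HA-p110 alpha, beta or delta cells exposed for 30 min at 37 °C to an 8-point compound series with 0.2% DMSO constant.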

[2] = test system: S6 Ribosomal Protein phosphorylation Ser235/236 in TSC1 null mouse embryo fibroblast (MEF) cells; assay: Reverse protein array assay, S6 Ribosomal Protein phosphorylation Ser235/236 in TSC1 null MEF cells; type: cell-based; settings: 1 h, pS6 ribosomal protein Ser235/236, 60 minutes incubation, read-out: p-S6 IC50
How it was run: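 TSC1−/− MEFs, seeded and held ≥20 h at 37 °C/5% CO2, were exposed to 8-step serial compound dilutions (0.02% DMSO final; DMSO vehicle control) for 60 min at 37 °C. Cells were then lysed on ice for 10 min and lysates spotted onto reverse protein array chips.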

[3] = test system: PKB Ser473 phosphorylation in Rat1-myr-HA-p110 alpha cells; assay: Reverse protein array assay, PKB Ser473 phosphorylation in Rat1-myr-p110 alpha cells; type: cell-based; settings: 0.5 h, pAkt Ser473, 30 minutes compound incubation, read-out: p-PKB IC50
How it was run: as §1

T1 sequence (O00329 with tags, fused parts or gaps limits assumed): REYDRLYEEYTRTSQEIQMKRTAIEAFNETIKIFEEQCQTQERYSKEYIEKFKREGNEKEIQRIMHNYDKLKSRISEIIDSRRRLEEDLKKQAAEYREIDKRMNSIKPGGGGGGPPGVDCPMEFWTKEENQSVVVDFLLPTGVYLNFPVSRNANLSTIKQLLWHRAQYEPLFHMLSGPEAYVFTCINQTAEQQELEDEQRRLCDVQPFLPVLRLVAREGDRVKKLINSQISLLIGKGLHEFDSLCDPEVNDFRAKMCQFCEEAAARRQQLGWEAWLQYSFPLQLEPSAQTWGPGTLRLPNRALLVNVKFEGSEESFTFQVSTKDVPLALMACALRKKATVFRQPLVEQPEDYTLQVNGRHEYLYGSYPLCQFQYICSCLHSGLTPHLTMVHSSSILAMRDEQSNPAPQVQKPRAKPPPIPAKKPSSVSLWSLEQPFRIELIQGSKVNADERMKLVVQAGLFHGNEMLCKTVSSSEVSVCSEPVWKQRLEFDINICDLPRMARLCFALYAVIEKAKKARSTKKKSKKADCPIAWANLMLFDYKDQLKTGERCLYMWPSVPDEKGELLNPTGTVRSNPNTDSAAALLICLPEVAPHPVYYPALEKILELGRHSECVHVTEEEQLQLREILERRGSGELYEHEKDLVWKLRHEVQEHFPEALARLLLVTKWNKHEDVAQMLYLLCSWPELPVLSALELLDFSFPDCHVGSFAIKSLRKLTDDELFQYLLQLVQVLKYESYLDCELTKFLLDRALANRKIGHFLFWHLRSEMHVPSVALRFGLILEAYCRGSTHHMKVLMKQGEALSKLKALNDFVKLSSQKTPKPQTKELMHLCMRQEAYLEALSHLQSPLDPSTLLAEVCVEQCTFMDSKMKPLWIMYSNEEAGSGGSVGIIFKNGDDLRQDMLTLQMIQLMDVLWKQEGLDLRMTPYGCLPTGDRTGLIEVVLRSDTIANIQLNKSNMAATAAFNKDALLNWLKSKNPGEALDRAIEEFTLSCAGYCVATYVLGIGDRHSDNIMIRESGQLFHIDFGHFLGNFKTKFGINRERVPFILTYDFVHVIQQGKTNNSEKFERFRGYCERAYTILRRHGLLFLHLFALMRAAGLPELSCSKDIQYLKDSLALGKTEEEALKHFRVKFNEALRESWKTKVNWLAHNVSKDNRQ

Row | Structure (SMILES) | IC50 (PI3K delta) | IC50 [1] | IC50 [2] | IC50 [3]
1 | CCn1cc(-n2c(=O)n(C)c3cnc4ccc(-c5cncc(N)c5)cc4c32)c(C)n1 [Example 45.2, 8-(5-Amino-pyridin-3-yl)-1-(1-ethyl-3-methyl-1H-pyrazol-4-yl)-3-methyl-1,3-dihydro-imidazo[4,5-c]quinolin-2-one] | 4 nM | 36 nM | 72 nM | 26 nM
2 | Cc1nn(C(C)C)cc1-n1c(=O)n(C)c2cnc3ccc(-c4cncc(N)c4)cc3c21 [Example 45.3, 8-(5-Amino-pyridin-3-yl)-1-(1-isopropyl-3-methyl-1H-pyrazol-4-yl)-3-methyl-1,3-dihydro-imidazo[4,5-c]quinolin-2-one] | 10 nM | 36 nM | 46 nM | 14 nM
3 | Cc1nn(C)cc1-n1c(=O)n(C)c2cnc3ccc(-c4ccc(-n5cccn5)cc4)cc3c21 [Example 51.1, 1-(1,3-Dimethyl-1H-pyrazol-4-yl)-3-methyl-8-(4-pyrazol-1-yl-phenyl)-1,3-dihydro-imidazo[4,5-c]quinolin-2-one] | 118 nM | < 5 nM | 5 nM | < 5 nM
4 | CCOc1cncc(-c2ccc3ncc4c(c3c2)n(-c2cn(CC(=O)N(C)C)nc2C)c(=O)n4C)c1 [Example 56.2, 2-{4-[8-(5-Ethoxy-pyridin-3-yl)-3-methyl-2-oxo-2,3-dihydro-imidazo[4,5-c]quinolin-1-yl]-3-methyl-pyrazol-1-yl}-N,N-dimethyl-acetamide] | 121 nM | 409 nM | 10 nM | 303 nM
5 | Cc1cnn(C)c1-n1c(=O)n(C)c2cnc3ccc(-c4cncc(OC(C)C)c4)cc3c21 [Example 58.3, 1-(2,4-Dimethyl-2H-pyrazol-3-yl)-8-(5-isopropoxy-pyridin-3-yl)-3-methyl-1,3-dihydro-imidazo[4,5-c]quinolin-2-one] | 118 nM | 281 nM | 174 nM | 383 nM
6 | COCCOc1cncc(-c2ccc3ncc4c(c3c2)n(-c2cn(C)nc2Cl)c(=O)n4C)c1 [Example 59.2, 1-(3-Chloro-1-methyl-1H-pyrazol-4-yl)-8-[5-(2-methoxy-ethoxy)-pyridin-3-yl]-3-methyl-1,3-dihydro-imidazo[4,5-c]quinolin-2-one] | 9 nM | 61 nM | 1 nM | 12 nM
7 | CCOc1ncc(-c2ccc3ncc4c(c3c2)n(-c2cn(C)nc2C)c(=O)n4C)cc1N(C)C(C)=O [Example 63, N-{5-[1-(1,3-Dimethyl-1H-pyrazol-4-yl)-3-methyl-2-oxo-2,3-dihydro-1H-imidazo[4,5-c]quinolin-8-yl]-2-ethoxy-pyridin-3-yl}-N-methyl-acetamide] | 20 nM | 744 nM | 13.4 nM | 265 nM
8 | CCOc1ncc(-c2ccc3ncc4c(c3c2)n(-c2cn(C)nc2C)c(=O)n4C)cc1NC(C)=O [Example 65, N-{5-[1-(1,3-Dimethyl-1H-pyrazol-4-yl)-3-methyl-2-oxo-2,3-dihydro-1H-imidazo[4,5-c]quinolin-8-yl]-2-ethoxy-pyridin-3-yl}-acetamide] | 175 nM | 43 nM | 66 nM | 47 nM
9 | Cc1ncc(-c2ccc3ncc4c(c3c2)n(-c2cn(C)nc2C)c(=O)n4C)cc1NS(C)(=O)=O [Example 76, N-{5-[1-(1,3-Dimethyl-1H-pyrazol-4-yl)-3-methyl-2-oxo-2,3-dihydro-1H-imidazo[4,5-c]quinolin-8-yl]-2-methyl-pyridin-3-yl}-methanesulfonamide] | 3 nM | 356 nM | 200 nM | 180 nM
10 | CCOc1cc(-c2ccc3ncc4c(c3c2)n(-c2c(C)nn(CC(=O)N(C)C)c2C)c(=O)n4C)cnc1C [Example 85.3, 2-{4-[8-(5-Ethoxy-6-methyl-pyridin-3-yl)-3-methyl-2-oxo-2,3-dihydro-imidazo[4,5-c]quinolin-1-yl]-3,5-dimethyl-pyrazol-1-yl}-N,N-dimethyl-acetamide] | 46 nM | 766 nM | 111 nM | 296 nM
11 | CCNc1cc(-c2ccc3ncc4c(c3c2)n(-c2cn(C)nc2Cl)c(=O)n4C)cnc1C [Example 87.2, 1-(3-Chloro-1-methyl-1H-pyrazol-4-yl)-8-(5-ethylamino-6-methyl-pyridin-3-yl)-3-methyl-1,3-dihydro-imidazo[4,5-c]quinolin-2-one] | 19 nM | < 5 nM | 1 nM | < 5 nM
12 | CCNc1cc(-c2ccc3ncc4c(c3c2)n(-c2cn(CC)nc2C)c(=O)n4C)cnc1C [Example 87.3, 8-(5-Ethylamino-6-methyl-pyridin-3-yl)-1-(1-ethyl-3-methyl-1H-pyrazol-4-yl)-3-methyl-1,3-dihydro-imidazo[4,5-c]quinolin-2-one] | 6 nM | < 5 nM | 6 nM | < 5 nM
13 | COc1ncc(-c2ccc3ncc4c(c3c2)n(-c2cn(C)nc2Cl)c(=O)n4C)cc1N [Example 89, 8-(5-Amino-6-methoxy-pyridin-3-yl)-1-(3-chloro-1-methyl-1H-pyrazol-4-yl)-3-methyl-1,3-dihydro-imidazo[4,5-c]quinolin-2-one] | 9 nM | < 5 nM | < 0.5 nM | < 5 nM
14 | Cc1nn(C)cc1-n1c(=O)n(C)c2cnc3ccc(-c4ccnc(OC(C)C)c4)cc3c21 [Example 92, 1-(1,3-Dimethyl-1H-pyrazol-4-yl)-8-(2-isopropoxy-pyridin-4-yl)-3-methyl-1,3-dihydro-imidazo[4,5-c]quinolin-2-one] | 127 nM | 715 nM | 75 nM | 244 nM
15 | CCN(C)c1ccc(-c2ccc3ncc4c(c3c2)n(-c2cn(C)nc2C)c(=O)n4C)cn1 [Example 98.1, 1-(1,3-Dimethyl-1H-pyrazol-4-yl)-8-[6-(ethyl-methyl-amino)-pyridin-3-yl]-3-methyl-1,3-dihydro-imidazo[4,5-c]quinolin-2-one] | 48 nM | 13 nM | 3 nM | < 5 nM
16 | COC(=O)c1ccc(-c2ccc3ncc4c(c3c2)n(-c2cn(C)nc2C)c(=O)n4C)cn1 [Example 100, 5-[1-(1,3-Dimethyl-1H-pyrazol-4-yl)-3-methyl-2-oxo-2,3-dihydro-1H-imidazo[4,5-c]quinolin-8-yl]-pyridine-2-carboxylic acid methyl ester] | 94 nM | 14 nM | 4 nM | 12 nM
17 | Cc1nn(C)cc1-n1c(=O)n(C)c2cnc3ccc(-c4ccc(OCCCO)nc4)cc3c21 [Example 108, 1-(1,3-Dimethyl-1H-pyrazol-4-yl)-8-[6-(3-hydroxy-propoxy)-pyridin-3-yl]-3-methyl-1,3-dihydro-imidazo[4,5-c]quinolin-2-one] | 556 nM | 128 nM | 17 nM | 134 nM
18 | COc1ccc(-c2ccc3ncc4[nH]c(=O)n(-c5cn(C)nc5C)c4c3c2)cn1 [Example 109, 1-(1,3-Dimethyl-1H-pyrazol-4-yl)-8-(6-methoxy-pyridin-3-yl)-1,3-dihydro-imidazo[4,5-c]quinolin-2-one] | 19 nM | 89 nM | 11 nM | 55 nM
